# Reference: patent publication US20210267948A1, “TREATMENT OF CANCER” (CITY OF HOPE, priority 2017, published 2021)
# Experiments:
# [1] = system: HCC1937+BRCA1; test: Cytotoxicity assay, HCC1937+BRCA1; assay type: cell-based, human; details: 10 μM, 72 h
# Method: All cell lines were acquired from the American Type Culture Collection (Manassas, Va., USA). Cells were maintained in RPMI 1640 medium (Mediatech) with 10% fetal bovine serum, 2 mM glutamine, and 100 U of penicillin and 100 μg of streptomycin per ml of medium (Sigma) at 37° C. in 5% CO2. To isolate HCC1937+BRCA1 cells, parental HCC1937 cells were transfected with pcDNA3.1 plasmid expressing full-length BRCA1 cDNA. Stable transfectant clones were selected and used for drug sensitivity assays. For stable transfection, cells at 30-40% confluence were incubated overnight with […] of plasmid DNA, using FUGENE® 6 transfectin reagent (Roche Molecular Biochemical, Monza, Italy) according to the manufacturer's instructions. Cells were then selected in puromycin (1 μg/ml) (Invitrogen Life Technologies, La Jolla, Calif., USA). After 20 to 30 days, viable puromycin-resistant colonies from HCC1937 transfections were expanded and screened. The clones that stably expressed puromycin and retained growth potential were assayed for BRCA1 expression by Western blot analysis. The restoration of BRCA1 expression in the puromycin-resistant cDNA/transfectant cells was evaluated by Western blot analysis.
# The MTT cytotoxicity assay was performed by incubating with MTT and monitoring the MTT formazan formed by viable cells with a microplate reader at a wavelength of 560 nm; the survival ratio was determined using the formula: (Atest−Ablank)/(Acontrol−Ablank)×100%. The cytotoxicity was determined in 96-well plates using the semiautomatic fluorescence-based Digital Imaging Microscopy System (DIMSCAN). DIMSCAN uses digital imaging microscopy to quantify viable cells, which selectively accumulate FDA (fluorescein diacetate; Alfa Aesar, Ward Hill, Mass.). DIMSCAN is capable of measuring cytotoxicity over a 4 log dynamic range by quantifying total fluorescence per well (which is proportional to the number of viable cells) after elimination of the background fluorescence by digital thresholding and eosin Y (Mallinckrodt Baker, Center Valley, Pa.) quenching. […]
# [2] = GLP toxicity study in dogs; assay type: in vivo; details: for Toxicity: Beagles, top dose 42 mg/kg
# Text: Toxicity studies in rats and dogs at doses equivalent to 10× that dose have not shown toxicity at 10 or 21 days.
# [3] = First-in-human Phase I dose escalation safety study; assay type: in vivo
# Text: First-in-human Phase I, single site, dose escalation, safety study.
# Inclusion Criteria: (1) Male and female patients≥18 years of age with advanced, histologically confirmed solid tumors refractory to standard therapy or for which no standard therapy exists; (2) Patients must have measurable or evaluable disease; (3) Patients may be entered if they have received prior radiation therapy involving ≤30% of the bone marrow; (4) Patients may be enrolled with a history of treated brain metastases that are clinically stable for ≥4 weeks prior to enrollment; (5) ECOG Performance Status of ≤2; (6) Life expectancy of greater than 12 weeks as determined by treating clinician assessment; and (7) Adequate organ function per standard laboratory assessments.
# Exclusion Criteria: (1) Patients must not have received prior chemotherapy or radiation for ≥4 weeks before study treatment initiation; (2) Patients unable or unwilling to swallow pill; (3) Active heart disease including myocardial infarction within previous 3 months, symptomatic coronary artery disease or heart block, or uncontrolled congestive heart failure; and (4) Women who are pregnant or actively breast-feeding.
# Intrapatient dose escalation is allowed and design reverts to standard 3+3 if 2 moderate toxicities or 1 dose limiting toxicity (DLT) is encountered.
# With respect to the DLT definition, Grade≥3 non-hematological toxicity will be considered dose limiting with the following clarifications: Grade 3 diarrhea will only be considered dose limiting if it is refractory to treatment and unable to be corrected to grade 1 or less within 24 hours. Bloody or grade 4 diarrhea will be dose limiting; Grade 3 nausea and vomiting will only be considered dose limiting if it is refractory to anti-emetic therapy and unable to be corrected to grade 1 or less within 24 hours; Grade 3 rise in creatinine, not corrected to grade 1 or less within 24 hours with IV fluids will be considered dose limiting. All grade 4 rises in creatinine will be dose limiting; and Grade 3 electrolyte toxicities unable to be corrected to grade 1 or baseline within 24 hours will be considered dose limiting. Tumor pain will not be considered dose limiting unless it is refractory to optimal treatment with analgesics. With respect to Grade 4, the following will be considered: Grade 4 thrombocytopenia; Grade 4 neutropenia lasting ≥5 days or febrile neutropenia; Grade 4 hemolysis; Treatment delay>2 weeks as a result of unresolved toxicity; and any degree of anemia, leucopenia in the absence of grade 4 neutropenia lasting ≥5 days, or lymphopenia will not be considered dose limiting.
# Patients receive oral COH29 twice a day for 21 days of a 28-day cycle. Dose levels range from 200 to 2400 mg per day of administration. Dose escalation is pursued utilizing a Simon's accelerated titration design, which allows skipping of dose levels (dose doubling) during the accelerated dose-finding phase. PD assessment includes measurement of plasma CK18 levels to determine degree of cellular apoptosis, evaluation of dNTP pool levels in peripheral blood mononuclear cells (PBMCs) to evaluate RNR inhibition, as well as measurement of PAR expression in PBMCs to assess PARP inhibition. Quantitation of tumor RRM2 expression using dual-color immunohistochemistry is explored as a predictive biomarker of anti-tumor response to COH29.
compound,measurement,setting,value
"O=C(Nc1nc(-c2ccc(O)c(O)c2)c(-c2ccccc2)s1)c1ccc(O)c(O)c1 [COH29, N-(4-(3,4-dihydroxyphenyl)-5-phenylthiazol-2-yl)-3,4-dihydroxybenzamide]",cells survived,[1]; HCC1937+BRCA1 transfected with BRCA1 siRNA,53%
same,cells survived,[1]; HCC1937+BRCA1 transfected with control siRNA,72%
same,Toxicity,[2]; 10 days,none
same,Toxicity,[2]; 21 days,none
same,NOAEL,"[2]; beagle, dog, in vivo",84 mg/kg/day
same,realtime PK monitoring vs AUC safety threshold,"[3]; every patient, cycle 1",no exceeding of AUC safety threshold
same,toxicity / DLT,"[3]; first patient, dose level 1, 100 mg twice a day",without any DLT
same,toxicity / DLT,"[3]; fourth patient, dose level 7, 800 mg twice a day",moderate toxicity of grade 2 diarrhea
same,toxicity / DLT,"[3]; second patient, dose level 3, 200 mg twice a day",moderate toxicity of grade 2 skin rash
same,toxicity / DLT,"[3]; third patient, dose level 5, 400 mg twice a day",without any DLT
